According to US6242199A, “Assays for growth hormone secretagogue receptors” (Merck & Co., Inc., priority 1998, dated 2001):

Key:
[1] = target: T1, growth hormone secretagogue receptor (GHSR), porcine anterior pituitary membranes (Sus scrofa, UniProt Q95254); test: [35S]-Compound A radioreceptor binding, porcine anterior pituitary membranes
T1 construct: Frozen anterior pituitary glands from male swine (50-80 Kg); from tissue; host or cells: anterior pituitary glands of male swine (50-80 kg), crude membranes
T1 sequence (Q95254 whole entry): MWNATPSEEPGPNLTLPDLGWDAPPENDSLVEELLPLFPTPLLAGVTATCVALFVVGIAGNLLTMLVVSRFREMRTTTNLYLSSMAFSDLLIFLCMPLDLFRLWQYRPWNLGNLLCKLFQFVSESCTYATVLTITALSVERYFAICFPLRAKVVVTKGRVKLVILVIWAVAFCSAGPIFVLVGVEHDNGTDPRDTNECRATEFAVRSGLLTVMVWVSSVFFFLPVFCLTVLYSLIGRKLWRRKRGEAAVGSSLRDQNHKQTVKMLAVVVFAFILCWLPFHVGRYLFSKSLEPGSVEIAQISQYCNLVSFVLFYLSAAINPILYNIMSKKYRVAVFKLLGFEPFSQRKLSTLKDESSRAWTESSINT
Description: Frozen anterior pituitary glands from male swine (50-80 Kg) or from the Wistar male rats (150-200 g) were homogenized in a tissue homogenizer in ice-cold buffer (50 mM Tris-HCl buffer, pH 7.4, 5 mM MgCl2, 2.5 mM EDTA, 0.1% bovine serum albumin and 30 μg/ml bacitracin). The homogenates were centrifuged for 5 min at 1,400×g and the resulting supernatants were then centrifuged at 34,000×g for 20 min. The pellets were resuspended in same buffer to a 1,500 μg protein/ml and stored at -80° C. Protein was determined by a Bio-Rad method (Bio-Rad Laboratories, Richmond, Calif.).
Aliquots were incubated at 20° C. for 60 min and bound radioligand was separated from free by filtration through GF/C filters pretreated with 0.5% of polyethylenimine in a Brandel cell harvester. […] Assays were carried out in triplicate and experiments repeated at least three times.

[2] = target: T2, swine growth hormone secretagogue receptor (Type I, clone 7-3) (Sus scrofa, UniProt Q95254); test: [35S]-Compound A binding to COS-7 cell membranes transfected with swine GHSR clone 7-3
T2 construct: translation of the longest ORF encoded in clone 7-3 encodes a protein of 353 amino acids; expressed in transfected cells; host or cells: COS-7 (transient, Lipofectamine)
T2 sequence (Q95254 14-366): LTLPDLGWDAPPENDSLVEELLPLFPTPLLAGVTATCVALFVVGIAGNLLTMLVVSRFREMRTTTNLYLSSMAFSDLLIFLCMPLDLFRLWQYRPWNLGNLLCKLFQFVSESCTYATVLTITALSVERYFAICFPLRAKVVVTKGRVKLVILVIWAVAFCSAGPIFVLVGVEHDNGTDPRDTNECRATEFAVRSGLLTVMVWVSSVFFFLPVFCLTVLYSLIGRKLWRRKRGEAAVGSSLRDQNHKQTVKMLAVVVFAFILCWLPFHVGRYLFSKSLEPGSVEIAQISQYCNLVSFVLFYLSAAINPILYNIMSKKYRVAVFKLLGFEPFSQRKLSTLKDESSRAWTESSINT
Description: Mammalian cells (COS-7) were transfected with GHSR expression plasmids using Lipofectamine (GIBCO-BRL; Hawley-Nelson, 1993, Focus 15:73). Transfections were performed in 60 mm dishes on 80% confluent cells (approximately 4×10^5 cells) with 8 μg of Lipofectamine and 32 μg of GHSR plasmid DNA.
Binding of [^35 S]-Compound A to swine pituitary membranes and crude membranes prepared from COS-7 cells transfected with GHSR expression plasmids was conducted. Crude cell membranes from COS-7 transfectants were prepared on ice, 48 hrs. post-transfection. Each 60 mm dish was washed twice with 3 ml of PBS, once with 1 ml homogenization buffer (50 mM Tris-HCl [pH 7.4], 5 mM MgCl2, 2.5 mM EDTA, 30 μg/ml bacitracin). 0.5 ml of homogenization buffer was added to each dish, cells were removed by scraping and then homogenized using a Polytron device (Brinkmann, Syosset, N.Y.; 3 bursts of 10 sec. at setting 4). The homogenate was then centrifuged for 20 min. at 11,000×g at 0° C. and the resulting crude membrane pellet (chiefly containing cell membranes and nuclei) was resuspended in homogenization buffer supplemented with 0.06% BSA (0.1 ml/60 mm dish) and kept on ice. Binding reactions were performed at 20° C. for 1 hr. in a total volume of 0.5 ml containing: 0.1 ml of membrane suspension, 10 μl of [^35 S]-Compound A (0.05 to 1 nM; specific activity approximately 900 Ci/mmol), 10 μl of competing drug and 380-390 μl of homogenization buffer. Bound radioligand was separated by rapid vacuum filtration (Brandel 48-well cell harvester) through GF/C filters pretreated for 1 hr. with 0.5% polyethylenimine. After application of the membrane suspension to the filter, the filters were washed 3 times with 3 ml each of ice cold 50 mM Tris-HCl [pH 7.4], 10 mM MgCl2, 2.5 mM EDTA and 0.015% Triton X-100, and the bound radioactivity on the filers was quantitated by scintillation counting. Specific binding (>90% of total) is defined as the difference between total binding and non-specific binding conducted in the presence of 50 nM unlabeled Compound A.

For CC(C)(N)C(=O)N[C@H](COCc1ccccc1)C(=O)N1CCC2(CC1)CN(S(C)(=O)=O)c1ccccc12 [Compound A, (N-[1(R)-[1,2-dihydro-1-methanesulfonlylspiro[3H-indole-3,4'-piperidin]-1'-yl)carbonyl]-2-(phenylmethyloxy)-ethyl]-2-amino-2-methyl-propanamide], the “specific binding of [35S]-Compound A detected in the absence of Mg2+” value ([1]; absence of Mg2+, in comparison with control (10 mM Mg2+)) was 15-25%, the Ki ([1]; competition with [35S]-Compound A, read-out: inhibition constant, Ki) was 240 pM and the “concentration (Bmax)” value ([1]; porcine anterior pituitary membranes, Scatchard analysis, n=4) was 6.3±0.6 fmol/mg of protein. The Kd ([1]; porcine anterior pituitary membranes, Scatchard analysis, n=4, read-out: apparent dissociation constant (KD)) was 161 ± 11 pM, the “specific binding of total binding” value ([1]; porcine membranes, nonspecific in 500 nM unlabeled Compound A) was 65-85% and the “displacement of / competition with [35S]-Compound A binding (in words)” value ([1]; unlabeled competitor, FIG. 24) was “completely displaced”. The inhibition at 0.05 µM ([2]; 1 h, 50 nM unlabeled Compound A, read-out: specific binding displaced by unlabeled Compound A) was > 90%, the “saturable binding, Bmax” value ([2]; clone 7-3 expressed transiently in COS-7 cells) was ~ 80 fmol/mg protein and the Kd ([2]; clone 7-3 expressed transiently in COS-7 cells, read-out: high affinity binding, KD) was ~200 pM. The “specific binding of total” value ([2]; nonspecific in presence of 50 nM unlabeled Compound A) was > 90%.
